Assay results: article PMC6545111 (Journal of medicinal chemistry, 2018)

Assays:
[1] = system: BRD2, BRD3 and BRD4 proteins in RS4;11 cells; conditions: for lowest concentration very effective in inducing degradation of BET proteins: 3 h treatment
[2] = system: MV4;11, MOLM-13 and RS4;11 acute leukemia cell lines; test: Cell growth inhibition, statements covering the three leukemia cell lines; format: cell-based, human
[3] = system: cleaved PARP and cleaved Caspase 3 in RS4;11 cells; test: Western blotting of cleaved PARP / caspase 3 in RS4; format: cell-based, human; conditions: RS4;11 cells; for apoptosis induction revealed by cleavage of PARP: 1 and 10 nM, 24 h treatment
[4] = system: c-Myc protein in RS4;11 cells; test: Western blotting of c-Myc in RS4; format: cell-based, human; conditions: RS4;11 cells, 3 h treatment
BRD4 BD1 protein [5] = target: T1, BRD4 BD1 protein (Homo sapiens, UniProt O60885); test: biochemical
BRD4 BD1 protein [6] = target: T1, BRD4 BD1 protein; conditions: for times less potent than 3 in binding to BRD4 BD1: vs compound 3
MOLM-13 cells = test: Apoptosis by flow cytometry; format: cell-based, human; conditions: MOLM-13, 1–10 μM
MV4;11 cells = test: Apoptosis by flow cytometry; format: cell-based, human; conditions: MV4;11, 1–10 μM
RS4;11 cells = test: Apoptosis by flow cytometry; format: cell-based, human; conditions: RS4;11, 1–10 μM

4-(4-((3-Benzyl-9-methyl-4H,6H-thieno[2,3-e][1,2,4]triazolo[3,4-c][1,4]oxazepin-2-yl)ethynyl)-1H-pyrazol-1-yl)-2-(2,6-dioxopiperidin-3-yl)isoindoline-1,3-dione [Compound 26]
degradation of BRD2, BRD3 and BRD4 proteins ([1]; up to 1,000 nM, 24 h treatment): failed to induce degradation
cell growth inhibitory activity ([2]; concentrations up to 1,000 nM, any of the three leukemia cell lines): failed to show significant cell growth inhibitory activity

4-(5-(4-((3-Benzyl-9-methyl-4H,6H-thieno[2,3-e][1,2,4]triazolo[3,4-c][1,4]oxazepin-2-yl)ethynyl)-1H-pyrazol-1-yl)pent-1-yn-1-yl)-2-(2,6-dioxopiperidin-3-yl)isoindoline-1,3-dione [Compound 36]
times less potent than 35 in cell growth inhibition ([2]; three leukemia cell lines): 10–100 times

4-((2-(4-((3-Benzyl-9-methyl-4H,6H-thieno[2,3-e][1,2,4]triazolo[3,4-c][1,4]oxazepin-2-yl)ethynyl)-1H-pyrazol-1-yl)ethyl)amino)-2-(2,6-dioxopiperidin-3-yl)isoindoline-1,3-dione [Compound 28]
apoptosis induction revealed by cleavage of PARP [3]: potently induce apoptosis

4-((3-(4-((3-Benzyl-9-methyl-4H,6H-thieno[2,3-e][1,2,4]triazolo[3,4-c][1,4]oxazepin-2yl)ethynyl)-1H-pyrazol-1-yl)propyl)amino)-2-(2,6-dioxopiperidin-3-yl)isoindoline-1,3-dione [Compound 29]
apoptosis induction revealed by cleavage of PARP [3]: potently induce apoptosis
lowest concentration very effective in inducing degradation of BET proteins [1]: ≤ 0.1 nM
times more potent than 28 in cell growth inhibition ([2]; three cell lines): 3–10 times

4-((4-(4-((3-Benzyl-9-methyl-4H,6H-thieno[2,3-e][1,2,4]triazolo[3,4-c][1,4]oxazepin-2yl)ethynyl)-1H-pyrazol-1-yl)butyl)amino)-2-(2,6-dioxopiperidin-3-yl)isoindoline-1,3-dione [Compound 30]
lowest concentration reducing the levels of c-Myc protein [4]: ≤ 0.1 nM
apoptosis induction revealed by cleavage of PARP [3]: potently induce apoptosis
lowest concentration very effective in inducing degradation of BET proteins [1]: ≤ 0.1 nM
times more potent than 29 in cell growth inhibition ([2]; each of the three leukemia cell lines): 2–3 times

4-((4-((3-Benzyl-9-methyl-4H,6H-thieno[2,3-e][1,2,4]triazolo[3,4-c][1,4]oxazepin-2-yl)ethynyl)-1H-pyrazol-1-yl)methoxy)-2-(2,6-dioxopiperidin-3-yl)isoindoline-1,3-dione [Compound 27]
degradation of BRD2 and BRD3 relative to BRD4 [1]: more effectively than the BRD4 protein
relative potency in inducing degradation of BET proteins [1]: much less potent than compounds 29, 30 and 31
lowest concentration very effective in inducing degradation of BRD2, BRD3 and BRD4 ([1]; time- and dose-dependent): ≤ 10 nM

4-((5-(4-((3-Benzyl-9-methyl-4H,6H-thieno[2,3-e][1,2,4]triazolo[3,4-c][1,4]oxazepin-2-yl)ethynyl)-1H-pyrazol-1-yl)pentyl)amino)-2-(2,6-dioxopiperidin-3-yl)isoindoline-1,3-dione [Compound 31]
lowest concentration reducing the levels of c-Myc protein [4]: ≤ 0.1 nM
apoptosis induction revealed by cleavage of PARP [3]: potently induce apoptosis
lowest concentration very effective in inducing degradation of BET proteins [1]: ≤ 0.1 nM

Cc1cc2c(s1)-n1c(C)nnc1COC2 [Compound 2, 2,9-dimethyl-4H,6H-thieno[2,3-e][1,2,4]triazolo[3,4-c][1,4]oxazepine]
IC50 (BRD4 BD1 protein [5]): 4400 ± 700 nM
Ki (BRD4 BD1 protein [5]): 1500 ± 200 nM

Cc1nnc2n1-c1scc(Cc3ccccc3)c1COC2 [Compound 4, 3-Benzyl-9-methyl-4H,6H-thieno[2,3-e][1,2,4]triazolo[3,4-c][1,4]oxazepine]
times less potent than 3 in binding to BRD4 BD1 (BRD4 BD1 protein [6]): 25 times

Cc1nnc2n1-c1sc(C3CCOCC3)c(Cc3ccccc3)c1COC2 [Compound 6, 3-Benzyl-9-methyl-2-(tetrahydro-2H-pyran-4-yl)-4H,6H-thieno[2,3-e][1,2,4]triazolo[3,4c][1,4]oxazepine]
times less potent than 3 in binding to BRD4 BD1 (BRD4 BD1 protein [6]): > 50 times

Cc1nnc2n1-c1sc(C#N)c(Cc3ccccc3)c1COC2 [Compound 9, 3-Benzyl-9-methyl-4H,6H-thieno[2,3-e][1,2,4]triazolo[3,4-c][1,4]oxazepine-2-carbonitrile]
times less potent than 3 in binding to BRD4 BD1 (BRD4 BD1 protein [6]): 6 times
times less potent than 8 in binding to BRD4 BD1 (BRD4 BD1 protein [6]; vs compound 8): 3 times

Cc1nnc2n1-c1sc(C#Cc3cnn(C)c3)c(Cc3ccccc3)c1COC2 [Compound 22, 3-Benzyl-9-methyl-2-((1-methyl-1H-pyrazol-4-yl)ethynyl)-4H,6H-thieno[2,3-e][1,2,4]triazolo[3,4-c][1,4]oxazepine]
PARP cleavage ([3]; 10 μM, 24 h): only marginally
apoptosis induction (MOLM-13 cells): minimal to modest effect
apoptosis induction (MV4;11 cells): minimal to modest effect
apoptosis induction (RS4;11 cells): minimal to modest effect
